Data: patent US10604535B2, “Compounds, compositions and methods” (Denali Therapeutics Inc., priority 2016, dated 2020)

Assays:
[1] = test system: FADD-deficient Jurkat cells; test: Cellular necroptosis assay (human TNFα-induced necrosis, CellTiter-Glo); format: cell-based; conditions: Homo sapiens, Jurkat, 48 h, TNFα 10 ng/mL, read-out: Cell IC50
GST-hRIPK1 (8-327) = GST-hRIPK1 (8-327) (Homo sapiens (Human), UniProt Q13546); test: Fluorescent Polarization Binding (FP Binding) assay
Chain of GST-hRIPK1 (8-327) (Q13546 8-327): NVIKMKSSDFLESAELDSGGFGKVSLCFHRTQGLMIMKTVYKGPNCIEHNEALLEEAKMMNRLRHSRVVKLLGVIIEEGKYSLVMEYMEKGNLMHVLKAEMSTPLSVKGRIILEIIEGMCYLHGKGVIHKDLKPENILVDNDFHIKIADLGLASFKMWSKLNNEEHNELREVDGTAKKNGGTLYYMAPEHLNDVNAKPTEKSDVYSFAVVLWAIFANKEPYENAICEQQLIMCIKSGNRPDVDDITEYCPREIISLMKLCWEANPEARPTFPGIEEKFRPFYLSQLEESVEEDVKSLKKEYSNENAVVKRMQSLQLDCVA

| SMILES | IC50 [1] [nM] | IC50 (GST-hRIPK1 (8-327)) [nM] |
| --- | --- | --- |
| O=C(NC1COc2cccnc2-n2ccnc21)c1nn(Cc2ccccc2)cc1F (stereo in doubt) [Example 154B, (S)-1-benzyl-N-(6,7-dihydroimidazo[1,2-d]pyrido[3,2-b][1,4]oxazepin-7-yl)-4-fluoro-1H-pyrazole-3-carboxamide] | 0.1 to 1000 | 0.1 to 1000 |
| C=C1C[C@H](NC(=O)c2cc(Cc3ccccc3)on2)C(=O)N(C)c2ccccc21 [Example 3, (S)-5-benzyl-N-(1-methyl-5-methylene-2-oxo-2,3,4,5-tetrahydro-1H-benzo[b]azepin-3-yl)isoxazole-3-carboxamide] | 0.1 to 1000 | 0.1 to 1000 |
| Cc1c(Cl)c(C(=O)N[C@H]2COc3ccccc3N(C)C2=O)nn1Cc1ccccc1 [Example 4, (S)-1-benzyl-4-chloro-5-methyl-N-(5-methyl-4-oxo-2,3,4,5-tetrahydrobenzo[b][1,4]oxazepin-3-yl)-1H-pyrazole-3-carboxamide] | 0.1 to 1000 | 0.1 to 1000 |
| Cc1c(F)c(C(=O)N[C@H]2COc3ccccc3N(C)C2=O)nn1Cc1ccccc1 [Example 6, (S)-1-benzyl-4-fluoro-5-methyl-N-(5-methyl-4-oxo-2,3,4,5-tetrahydrobenzo[b][1,4]oxazepin-3-yl)-1H-pyrazole-3-carboxamide] | 0.1 to 1000 | 0.1 to 1000 |
| CN1C(=O)[C@@H](NC(=O)c2cc(Cc3ccccc3)on2)C2CC2c2ccccc21 (stereo partly drawn) [Example 7, 5-benzyl-N-((2S)-4-methyl-3-oxo-1,1a,2,3,4,8b-hexahydrobenzo[b]cyclopropa[d]azepin-2-yl)isoxazole-3-carboxamide] | 0.1 to 1000 | 0.1 to 1000 |
| CN1C(=O)C(NC(=O)c2nnc(Cc3ccccc3)[nH]2)CC(F)(F)c2ccccc21 (centres unmarked) [Example 10, 5-benzyl-N-(5,5-difluoro-1-methyl-2-oxo-2,3,4,5-tetrahydro-1H-benzo[b]azepin-3-yl)-4H-1,2,4-triazole-3-carboxamide] | 0.1 to 1000 | 0.1 to 1000 |
| O=C(N[C@H]1CCc2ccccc2-n2ccnc21)c1cc(Cc2ccccc2)on1 [Example 30, (S)-5-benzyl-N-(5,6-dihydro-4H-benzo[f]imidazo[1,2-a]azepin-4-yl)isoxazole-3-carboxamide] | 0.1 to 1000 | 0.1 to 1000 |
| CN1C(=O)[C@@H](NC(=O)c2cc(Cc3ccccc3)[nH]n2)[C@H]2C[C@H]2c2cccnc21 [Example 80A, 5-benzyl-N-((1aS,2S,8bR)-4-methyl-3-oxo-1,1a,2,3,4,8b-hexahydrocyclopropa[d]pyrido[2,3-b]azepin-2-yl)-1H-pyrazole-3-carboxamide] | 0.1 to 1000 |  |
| CN1C(=O)[C@@H](NC(=O)c2cc(Cc3ccccc3)on2)[C@H]2C[C@H]2c2cccnc21 [Example 81A, 5-benzyl-N-((1aS,2S,8bR)-4-methyl-3-oxo-1,1a,2,3,4,8b-hexahydrocyclopropa[d]pyrido[2,3-b]azepin-2-yl)isoxazole-3-carboxamide] | 0.1 to 1000 |  |
| CN1C(=O)[C@@H](NC(=O)c2nn(Cc3ccccc3)cc2F)[C@H]2C[C@H]2c2cccnc21 [Example 82A, 1-benzyl-4-fluoro-N-((1aS,2S,8bR)-4-methyl-3-oxo-1,1a,2,3,4,8b-hexahydrocyclopropa[d]pyrido[2,3-b]azepin-2-yl)-1H-pyrazole-3-carboxamide] | 0.1 to 1000 |  |
| CN1C(=O)[C@@H](NC(=O)c2nc3cccc(-c4ccccc4)c3s2)COc2ccccc21 [Example 84, (S)—N-(5-methyl-4-oxo-2,3,4,5-tetrahydrobenzo[b][1,4]oxazepin-3-yl)-7-phenylbenzo[d]thiazole-2-carboxamide] | 0.1 to 1000 |  |
| CN1C(=O)[C@@H](NC(=O)c2nnc(Cc3ccccc3)s2)COc2cccnc21 [Example 85, (S)-5-benzyl-N-(5-methyl-4-oxo-2,3,4,5-tetrahydropyrido[3,2-b][1,4]oxazepin-3-yl)-1,3,4-thiadiazole-2-carboxamide] | 0.1 to 1000 |  |
| CN1C(=O)[C@@H](NC(=O)c2ncc(Cc3ccccc3)s2)COc2cccnc21 [Example 86, (S)-5-benzyl-N-(5-methyl-4-oxo-2,3,4,5-tetrahydropyrido[3,2-b][1,4]oxazepin-3-yl)thiazole-2-carboxamide] | 0.1 to 1000 |  |
| CN1C(=O)[C@@H](NC(=O)c2cnc(C3(c4ccccc4)CC3)[nH]2)COc2ccccc21 [Example 88, (S)—N-(5-methyl-4-oxo-2,3,4,5-tetrahydrobenzo[b][1,4]oxazepin-3-yl)-2-(1-phenylcyclopropyl)-1H-imidazole-5-carboxamide] | 1000 to 10000 |  |
| O=C(N[C@@H]1C(=O)Nc2c(F)cc(F)cc2[C@@H]2C[C@H]12)c1nnc(Cc2ccccc2)o1 [Example 89B, 5-benzyl-N-((1aS,2S,8bR)-5,7-difluoro-3-oxo-1,1a,2,3,4,8b-hexahydrobenzo[b]cyclopropa[d]azepin-2-yl)-1,3,4-oxadiazole-2-carboxamide] | 0.1 to 1000 |  |
| O=C(N[C@@H]1C(=O)Nc2c(F)cc(F)cc2[C@@H]2C[C@H]12)c1cn(Cc2ccccc2)nn1 [Example 90B, 1-benzyl-N-((1aS,2S,8bR)-5,7-difluoro-3-oxo-1,1a,2,3,4,8b-hexahydrobenzo[b]cyclopropa[d]azepin-2-yl)-1H-1,2,3-triazole-4-carboxamide] | 0.1 to 1000 |  |

| SMILES | IC50 [1] [nM] | IC50 (GST-hRIPK1 (8-327)) [nM] |
| --- | --- | --- |
| [2H]C([2H])([2H])N1C(=O)[C@@H](NC(=O)c2nnc(C3(c4ccccc4)CC3)o2)COc2cccnc21 [Example 173, (S)—N-(5-trideuteriomethyl-4-oxo-2,3,4,5-tetrahydropyrido[3,2-b][1,4]oxazepin-3-yl)-5-(1-phenylcyclopropyl)-1,3,4-oxadiazole-2-carboxamide] | 0.1 to 1000 |  |
| [2H]C([2H])([2H])N1C(=O)[C@@H](NC(=O)c2nn(Cc3ccccc3)cc2F)COc2cccnc21 [Example 175, (S)-1-benzyl-4-fluoro-N-(5-trideuteriomethyl-4-oxo-2,3,4,5-tetrahydropyrido[3,2-b][1,4]oxazepin-3-yl)-1H-pyrazole-3-carboxamide] | 0.1 to 1000 |  |
| CN1C(=O)[C@@H](NC(=O)c2nn(Cc3cocn3)cc2F)COc2cccnc21 [Example 209, (S)-4-fluoro-N-(5-methyl-4-oxo-2,3,4,5-tetrahydropyrido[3,2-b][1,4]oxazepin-3-yl)-1-(oxazol-4-ylmethyl)-1H-pyrazole-3-carboxamide] | 0.1 to 1000 |  |
| CN1C(=O)[C@@H](NC(=O)c2nn(Cc3ccc(F)cn3)cc2F)COc2ccccc21 [Example 214, (S)-4-fluoro-1-((5-fluoropyridin-2-yl)methyl)-N-(5-methyl-4-oxo-2,3,4,5-tetrahydrobenzo[b][1,4]oxazepin-3-yl)-1H-pyrazole-3-carboxamide] | 0.1 to 1000 |  |
| CN1C(=O)[C@@H](NC(=O)c2noc(Cc3ccccc3)n2)COc2cccnc21 [Example 215, (S)-5-benzyl-N-(5-methyl-4-oxo-2,3,4,5-tetrahydropyrido[3,2-b][1,4]oxazepin-3-yl)-1,2,4-oxadiazole-3-carboxamide] | 0.1 to 1000 |  |
| CN1C(=O)[C@@H](NC(=O)c2nn(Cc3ccc(Cl)cn3)cc2F)COc2ccccc21 [Example 216, (S)-1-((5-chloropyridin-2-yl)methyl)-4-fluoro-N-(5-methyl-4-oxo-2,3,4,5-tetrahydrobenzo[b][1,4]oxazepin-3-yl)-1H-pyrazole-3-carboxamide] | 0.1 to 1000 |  |
| C[C@H]1Oc2cccnc2N(C)C(=O)[C@H]1NC(=O)c1nnc(Cc2ccccc2)s1 [Example 217, 5-benzyl-N-((2R,3S)-2,5-dimethyl-4-oxo-2,3,4,5-tetrahydropyrido[3,2-b][1,4]oxazepin-3-yl)-1,3,4-thiadiazole-2-carboxamide] | 0.1 to 1000 |  |
| CN1C(=O)[C@@H](NC(=O)c2nnc(Cc3ccccc3)[nH]2)[C@H]2C[C@H]2c2cc(C#N)cnc21 [Example 218, 5-benzyl-N-((1aS,2S,8bR)-7-cyano-4-methyl-3-oxo-1,1a,2,3,4,8b-hexahydrocyclopropa[d]pyrido[2,3-b]azepin-2-yl)-4H-1,2,4-triazole-3-carboxamide] | 0.1 to 1000 |  |
| CN1C(=O)[C@@H](NC(=O)c2ncc(Cc3cccc(C#N)c3)s2)CCc2cccnc21 [Example 219, (S)-5-(3-cyanobenzyl)-N-(9-methyl-8-oxo-6,7,8,9-tetrahydro-5H-pyrido[2,3-b]azepin-7-yl)thiazole-2-carboxamide] | 0.1 to 1000 |  |
| COc1cccc(Cn2cc(F)c(C(=O)N[C@H]3COc4ccccc4N(C)C3=O)n2)n1 [Example 220, (S)-4-fluoro-1-((6-methoxypyridin-2-yl)methyl)-N-(5-methyl-4-oxo-2,3,4,5-tetrahydrobenzo[b][1,4]oxazepin-3-yl)-1H-pyrazole-3-carboxamide] | 0.1 to 1000 |  |
| C[C@H]1Oc2cccnc2N(C)C(=O)[C@H]1NC(=O)c1nnc(C(F)(F)c2ccccc2)o1 [Example 221, 5-(difluoro(phenyl)methyl)-N-((2R,3S)-2,5-dimethyl-4-oxo-2,3,4,5-tetrahydropyrido[3,2-b][1,4]oxazepin-3-yl)-1,3,4-oxadiazole-2-carboxamide] | 0.1 to 1000 |  |
| C[C@H]1Oc2cccnc2N(C)C(=O)[C@H]1NC(=O)c1noc(Cc2ccccc2)n1 [Example 222, 5-benzyl-N-((2R,3S)-2,5-dimethyl-4-oxo-2,3,4,5-tetrahydropyrido[3,2-b][1,4]oxazepin-3-yl)-1,2,4-oxadiazole-3-carboxamide] | 0.1 to 1000 |  |
| CN1C(=O)[C@@H](NC(=O)c2nnc(Cc3ccc(F)cc3)o2)[C@H]2C[C@H]2c2nccnc21 [Example 223, 5-(4-fluorobenzyl)-N-((7S,7aS,8aR)-5-methyl-6-oxo-5,6,7,7a,8,8a-hexahydrocyclopropa[d]pyrazino[2,3-b]azepin-7-yl)-1,3,4-oxadiazole-2-carboxamide] | 0.1 to 1000 |  |
| CN1C(=O)[C@@H](NC(=O)c2nn(Cc3ncccn3)cc2F)COc2ccccc21 [Example 224, (S)-4-fluoro-N-(5-methyl-4-oxo-2,3,4,5-tetrahydrobenzo[b][1,4]oxazepin-3-yl)-1-(pyrimidin-2-ylmethyl)-1H-pyrazole-3-carboxamide] | 0.1 to 1000 |  |
| CN1C(=O)[C@@H](NC(=O)c2nnc(Cc3ccccc3)o2)CCc2ccccc21 [Example 225, (S)-5-benzyl-N-(1-methyl-2-oxo-2,3,4,5-tetrahydro-1H-benzo[b]azepin-3-yl)-1,3,4-oxadiazole-2-carboxamide] | 0.1 to 1000 |  |
